pEC50: −log10 of the molar value.
Legend:
Glucocorticoid receptor = biological target: T1, Glucocorticoid receptor (Rattus norvegicus, UniProt P06536); assay: Binding affinity to rat glucocorticoid receptor
T1 sequence (P06536 whole entry): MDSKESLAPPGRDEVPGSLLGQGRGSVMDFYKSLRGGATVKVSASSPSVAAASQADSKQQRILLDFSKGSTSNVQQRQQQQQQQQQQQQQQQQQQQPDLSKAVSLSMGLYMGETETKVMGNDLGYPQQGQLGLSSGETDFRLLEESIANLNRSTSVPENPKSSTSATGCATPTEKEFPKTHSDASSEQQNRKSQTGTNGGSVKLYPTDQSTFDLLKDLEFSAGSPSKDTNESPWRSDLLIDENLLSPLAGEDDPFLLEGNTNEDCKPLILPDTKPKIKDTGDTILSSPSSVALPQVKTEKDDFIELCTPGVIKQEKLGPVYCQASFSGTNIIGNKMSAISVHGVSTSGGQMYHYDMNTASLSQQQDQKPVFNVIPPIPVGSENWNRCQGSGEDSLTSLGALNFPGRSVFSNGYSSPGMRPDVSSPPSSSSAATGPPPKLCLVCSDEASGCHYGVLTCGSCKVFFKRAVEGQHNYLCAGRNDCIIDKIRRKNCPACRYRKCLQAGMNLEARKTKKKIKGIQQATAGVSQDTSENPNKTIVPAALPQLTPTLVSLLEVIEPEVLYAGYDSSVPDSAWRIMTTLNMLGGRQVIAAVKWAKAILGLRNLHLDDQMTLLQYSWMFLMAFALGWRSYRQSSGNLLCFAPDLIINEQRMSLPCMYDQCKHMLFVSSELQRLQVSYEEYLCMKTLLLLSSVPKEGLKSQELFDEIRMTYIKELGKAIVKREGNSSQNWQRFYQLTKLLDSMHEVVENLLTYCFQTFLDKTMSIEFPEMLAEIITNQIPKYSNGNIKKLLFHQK

Progesterone receptor = Progesterone receptor (Rattus norvegicus, UniProt Q63449); assay: Binding affinity to progesterone receptor
Sequence of Progesterone receptor (Q63449 whole entry): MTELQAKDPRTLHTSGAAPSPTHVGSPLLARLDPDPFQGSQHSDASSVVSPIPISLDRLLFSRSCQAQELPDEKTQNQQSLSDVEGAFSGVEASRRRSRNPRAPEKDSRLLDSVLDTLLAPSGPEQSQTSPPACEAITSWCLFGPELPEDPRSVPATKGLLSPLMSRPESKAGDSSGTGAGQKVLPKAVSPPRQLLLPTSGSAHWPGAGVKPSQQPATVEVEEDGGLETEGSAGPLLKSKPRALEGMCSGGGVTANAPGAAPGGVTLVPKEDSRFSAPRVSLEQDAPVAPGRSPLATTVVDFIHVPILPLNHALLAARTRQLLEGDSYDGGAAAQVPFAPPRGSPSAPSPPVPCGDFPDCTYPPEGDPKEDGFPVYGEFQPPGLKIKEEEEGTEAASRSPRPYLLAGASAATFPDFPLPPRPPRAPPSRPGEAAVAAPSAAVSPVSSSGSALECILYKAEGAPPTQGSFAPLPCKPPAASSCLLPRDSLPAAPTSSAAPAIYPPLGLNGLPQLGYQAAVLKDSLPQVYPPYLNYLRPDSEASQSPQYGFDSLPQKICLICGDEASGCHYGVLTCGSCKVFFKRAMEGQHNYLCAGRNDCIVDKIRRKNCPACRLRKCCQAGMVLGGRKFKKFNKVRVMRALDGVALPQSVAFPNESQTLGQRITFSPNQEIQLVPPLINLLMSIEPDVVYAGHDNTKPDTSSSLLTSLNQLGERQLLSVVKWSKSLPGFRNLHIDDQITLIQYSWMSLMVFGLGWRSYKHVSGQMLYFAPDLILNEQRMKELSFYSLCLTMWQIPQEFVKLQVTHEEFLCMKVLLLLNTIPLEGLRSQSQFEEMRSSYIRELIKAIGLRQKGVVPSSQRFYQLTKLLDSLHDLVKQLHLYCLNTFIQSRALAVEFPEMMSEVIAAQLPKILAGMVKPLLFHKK

## C=CCC1Oc2cccc(OC)c2-c2ccc3c(c21)C(C)=CC(C)(C)N3 (configuration not stated) [AL-43]
Glucocorticoid receptor
  pEC50: 8.10
Progesterone receptor
  pEC50: 6.90

From ChEMBL document CHEMBL1139978, “Synthesis and radiopharmacological characterization of [11C]AL-438 as a nonsteroidal ligand for imaging brain glucocorticoid receptors” (Bioorg Med Chem Lett, 2007)
